Laboratory results from US20070281992A1, “COMBINATION OF GYRASE B INHIBITORS AND PROTEIN SYNTHESIS INHIBITORS AND USES THEREOF” (priority 2006, published 2007).
Like-named read-outs stand apart in the source and are kept apart here.

Key:
[1] = test system: Vancomycin-intermediate Staphylococcus epidermidis Isolates; experiment: MIC assay (NCCLS broth dilution), VISE isolates; type: cell-based; details: for MIC: read-out: Minimal Inhibitory Concentration
Description: (§1) Antibiotics: novobiocin, tetracycline, minocycline, oxacillin, and vancomycin were all purchased from Sigma-Aldrich. Linezolid was obtained from Pfizer, Inc. Novobiocin/tetracycline and novobiocin/minocycline were tested in a 2.5:1 ratio to mimic the serum levels. (Vavra, J. J., 1967, Development of resistance to novobiocin, tetracycline, and novobiocin-tetracycline combinations in Staphylococcus aureus populations, J. Bacteriol 93(3):801). Compounds were tested across a concentration range consisting of 11 two-fold serial dilutions of test agent.
(§2) Stock solutions were prepared in sterile deionized water; novobiocin stock concentration was 1600 μg/mL and all other drugs stock solutions were prepared at 640 μg/mL. The stock solutions were allowed to sit at room temperature for one hour to auto-sterilize prior to use in the test. All compounds were in solution in water. The control agent was vancomycin hydrochloride, Sigma Chemical Lot # 015K0825.
(§3) The test organisms for the assay were 52 MSSA, 52 MRSA, 8 VISA, 7 VISE, and 3 LRSA isolates. Quality control strains included Staphylococcus aureus 0100 (ATCC 29213) and Enterococcus faecalis (ATCC 29212).
(§4) The MIC assay was performed according to published NCCLS guidelines. (National Committee for Clinical Laboratory Standards, Methods for Dilution Antimicrobial Susceptibility Tests for Bacteria that Grow Aerobically; Approved Standard-Sixth Edition, NCCLS Document M7-A6 [ISBN 1-56238-486-4], NCCLS, 940 West Valley Road, Suite 1400, Wayne, Pa. 19087-1898 USA, 2003). The test medium was Mueller Hinton II Broth for all organisms.

[2] = test system: Methicillin-Resistant Staphylococcus aureus Isolates; experiment: MIC assay (NCCLS broth dilution), MRSA clinical isolates; type: cell-based; details: for MIC: read-out: Minimal Inhibitory Concentration
Description: as §1, §2, §3, §4

[3] = Staphylococcus aureus, 52 MRSA isolates, combinations at 2.5:1, given as NB/partner

CN(C)c1ccc(O)c2c1C[C@H]1C[C@H]3[C@H](N(C)C)C(O)=C(C(N)=O)C(=O)[C@@]3(O)C(O)=C1C2=O [MI, minocycline]
MIC Range ([1]; 4 VISE isolates, combinations at 2.5:1): .06 to .25 µg/mL
MIC ([1]; Staphylococcus epidermidis, VISE isolate 2020, 09MAR06): 0.12 µg/mL
MIC ([1]; Staphylococcus epidermidis, VISE isolate 2021, 09MAR06): 0.06 µg/mL
MIC ([1]; Staphylococcus epidermidis, VISE isolate 2022, 03MAR06): 0.25 µg/mL
MIC ([1]; Staphylococcus epidermidis, VISE isolate 2023, 03MAR06): 0.06 µg/mL
MIC50 ([1]; Staphylococcus epidermidis, 4 VISE isolates, combinations at 2.5:1): 0.06 µg/mL
MIC Range ([2]; 52 MRSA isolates, combinations at 2.5:1, given as NB/partner): .06 to .16 µg/mL
MIC ([2]; Staphylococcus aureus, MRSA isolate 757, 24FEB06): 8 µg/mL
MIC ([2]; Staphylococcus aureus, MRSA isolate 758, 03MAR06): 0.12 µg/mL
MIC ([2]; Staphylococcus aureus, MRSA isolate 758, 24FEB06): 0.12 µg/mL
MIC ([2]; Staphylococcus aureus, MRSA isolate 760, 03MAR06): 0.12 µg/mL
MIC ([2]; Staphylococcus aureus, MRSA isolate 760, 24FEB06): 0.12 µg/mL
MIC ([2]; Staphylococcus aureus, MRSA isolate 763, 22FEB06): 0.12 µg/mL
MIC ([2]; Staphylococcus aureus, MRSA isolate 765, 22FEB06): 0.06 µg/mL
MIC ([2]; Staphylococcus aureus, MRSA isolate 766, 22FEB06): 0.12 µg/mL
MIC ([2]; Staphylococcus aureus, MRSA isolate 767, 22FEB06): 0.12 µg/mL
MIC ([2]; Staphylococcus aureus, MRSA isolate 768, 22FEB06): 0.06 µg/mL
MIC ([2]; Staphylococcus aureus, MRSA isolate 769, 22FEB06): 0.12 µg/mL
MIC ([2]; Staphylococcus aureus, MRSA isolate 770, 22FEB06): 0.12 µg/mL
MIC ([2]; Staphylococcus aureus, MRSA isolate 771, 22FEB06): 0.12 µg/mL
MIC ([2]; Staphylococcus aureus, MRSA isolate 772, 22FEB06): 0.12 µg/mL
MIC ([2]; Staphylococcus aureus, MRSA isolate 773, 24FEB06): 0.12 µg/mL
MIC ([2]; Staphylococcus aureus, MRSA isolate 774, 24FEB06): 0.12 µg/mL
MIC ([2]; Staphylococcus aureus, MRSA isolate 775, 24FEB06): 0.12 µg/mL
MIC ([2]; Staphylococcus aureus, MRSA isolate 776, 24FEB06): 0.12 µg/mL
MIC ([2]; Staphylococcus aureus, MRSA isolate 777, 24FEB06): 0.12 µg/mL
MIC ([2]; Staphylococcus aureus, MRSA isolate 778, 24FEB06): 0.06 µg/mL
MIC ([2]; Staphylococcus aureus, MRSA isolate 886, 24FEB06): 0.12 µg/mL
MIC ([2]; Staphylococcus aureus, MRSA isolate 887, 24FEB06): 0.12 µg/mL
MIC ([2]; Staphylococcus aureus, MRSA isolate 888, 24FEB06): 0.12 µg/mL
MIC ([2]; Staphylococcus aureus, MRSA isolate 889, 24FEB06): 0.12 µg/mL
MIC ([2]; Staphylococcus aureus, MRSA isolate 1004, 24FEB06): 0.12 µg/mL
MIC ([2]; Staphylococcus aureus, MRSA isolate 1010, 22FEB06): 0.12 µg/mL
MIC ([2]; Staphylococcus aureus, MRSA isolate 1012, 22FEB06): 0.12 µg/mL
MIC ([2]; Staphylococcus aureus, MRSA isolate 1013, 22FEB06): 0.12 µg/mL
MIC ([2]; Staphylococcus aureus, MRSA isolate 1014, 22FEB06): 0.12 µg/mL
MIC ([2]; Staphylococcus aureus, MRSA isolate 1015, 22FEB06): 0.12 µg/mL
MIC ([2]; Staphylococcus aureus, MRSA isolate 1016, 22FEB06): 0.12 µg/mL
MIC ([2]; Staphylococcus aureus, MRSA isolate 1017, 22FEB06): 0.12 µg/mL
MIC ([2]; Staphylococcus aureus, MRSA isolate 1021, 22FEB06): 0.12 µg/mL
MIC ([2]; Staphylococcus aureus, MRSA isolate 1022, 22FEB06): 0.12 µg/mL
MIC ([2]; Staphylococcus aureus, MRSA isolate 1023, 22FEB06): 0.12 µg/mL
MIC ([2]; Staphylococcus aureus, MRSA isolate 1024, 22FEB06): 0.12 µg/mL
MIC ([2]; Staphylococcus aureus, MRSA isolate 1025, 22FEB06): 0.12 µg/mL
MIC ([2]; Staphylococcus aureus, MRSA isolate 1135, 22FEB06): 0.12 µg/mL
MIC ([2]; Staphylococcus aureus, MRSA isolate 1136, 22FEB06): 0.12 µg/mL
MIC ([2]; Staphylococcus aureus, MRSA isolate 1137, 22FEB06): 0.12 µg/mL
MIC ([2]; Staphylococcus aureus, MRSA isolate 1138, 22FEB06): 0.12 µg/mL
MIC ([2]; Staphylococcus aureus, MRSA isolate 1222, 03MAR06): 0.06 µg/mL
MIC ([2]; Staphylococcus aureus, MRSA isolate 1222, 24FEB06): 0.12 µg/mL
MIC ([2]; Staphylococcus aureus, MRSA isolate 1653, 03MAR06): 0.06 µg/mL
MIC ([2]; Staphylococcus aureus, MRSA isolate 1658, 03MAR06): 0.06 µg/mL
MIC ([2]; Staphylococcus aureus, MRSA isolate 1659, 03MAR06): 0.06 µg/mL
MIC ([2]; Staphylococcus aureus, MRSA isolate 1661, 03MAR06): 0.12 µg/mL
MIC ([2]; Staphylococcus aureus, MRSA isolate 1729, 03MAR06): 16 µg/mL
MIC ([2]; Staphylococcus aureus, MRSA isolate 1730, 24FEB06): 0.12 µg/mL
MIC ([2]; Staphylococcus aureus, MRSA isolate 2009, 24FEB06): 1 µg/mL
MIC ([2]; Staphylococcus aureus, MRSA isolate 2010, 24FEB06): 0.12 µg/mL
MIC ([2]; Staphylococcus aureus, MRSA isolate 2011, 24FEB06): 0.12 µg/mL
MIC50 [2, 3]: 0.12 µg/mL
MIC90 [2, 3]: 0.12 µg/mL
